Laboratory results reported in PubChem BioAssay (NCI).
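How tested: cells in 96-well plates exposed to compound for 48 hours at five concentrations. TGI is the concentration that stops growth completely.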

What was measured:
Assay in all cases: DTP human tumour cell line panel, 48 h
[1] = tested on: OVCAR-5 ovarian
[2] = tested on: HCT-15 colon
[3] = tested on: SF-268 CNS
[4] = tested on: OVCAR-8 ovarian
[5] = tested on: CCRF-CEM leukemia
[6] = tested on: NCI/ADR-RES ovarian
[7] = tested on: UACC-257 melanoma
[8] = tested on: MDA-MB-231 breast
[9] = tested on: LOX IMVI melanoma
[10] = tested on: HCT-116 colon
[11] = tested on: MDA-N
[12] = tested on: SW-620 colon
[13] = tested on: A498 renal
[14] = tested on: HCC-2998 colon
[15] = tested on: T-47D breast
[16] = tested on: IGROV1 ovarian
[17] = tested on: U251 CNS
[18] = tested on: HS 578T breast
[19] = tested on: KM12 colon
[20] = tested on: MCF7 breast
[21] = tested on: SK-MEL-5 melanoma
[22] = tested on: HOP-62 NSCLC
[23] = tested on: UO-31 renal
[24] = tested on: EKVX NSCLC
[25] = tested on: SR leukemia
[26] = tested on: HL-60(TB) leukemia
[27] = tested on: DU-145 prostate
[28] = tested on: 786-0 renal
[29] = tested on: OVCAR-3 ovarian
[30] = tested on: MDA-MB-435
[31] = tested on: OVCAR-4 ovarian
[32] = tested on: TK-10 renal
[33] = tested on: SK-MEL-2 melanoma
[34] = tested on: RXF 393 renal
[35] = tested on: K-562 leukemia
[36] = tested on: SK-OV-3 ovarian
[37] = tested on: NCI-H226 lung
[38] = tested on: SF-539 CNS
[39] = tested on: MOLT-4 leukemia
[40] = tested on: RPMI-8226 leukemia
[41] = tested on: M14 melanoma
[42] = tested on: NCI-H23 lung
[43] = tested on: ACHN renal
[44] = tested on: PC-3 prostate
[45] = tested on: HOP-92 NSCLC
[46] = tested on: NCI-H522 lung
[47] = tested on: SK-MEL-28 melanoma
[48] = tested on: CAKI-1 renal
[49] = tested on: SF-295 CNS
[50] = tested on: HT29 colon
[51] = tested on: NCI-H460 lung
[52] = tested on: COLO 205 colon
[53] = tested on: BT-549 breast
[54] = tested on: SN12C renal
[55] = tested on: A549 NSCLC
[56] = tested on: SNB-75 CNS
[57] = tested on: MALME-3M melanoma
[58] = tested on: SNB-19 CNS
[59] = tested on: UACC-62 melanoma

## ClC1=C(Cl)C2OC3C=CCC3OC2C(Cl)=C1Cl (configuration not stated)
[1]
  TGI: > 100 µM
[2]
  TGI: > 100 µM
[3]
  TGI: > 100 µM
[4]
  TGI: > 100 µM
[5]
  TGI: > 100 µM
[6]
  TGI: > 100 µM
[7]
  TGI: > 100 µM
[8]
  TGI: > 100 µM
[9]
  TGI: > 100 µM
[10]
  TGI: > 100 µM
[11]
  TGI: > 100 µM
[12]
  TGI: > 100 µM
[13]
  TGI: > 100 µM
[14]
  TGI: 88.4 µM
[15]
  TGI: > 100 µM
[16]
  TGI: > 100 µM
[17]
  TGI: > 100 µM
[18]
  TGI: 89.7 µM
[19]
  TGI: > 100 µM
[20]
  TGI: > 100 µM
[21]
  TGI: > 100 µM
[22]
  TGI: > 100 µM
[23]
  TGI: > 100 µM
[24]
  TGI: > 100 µM
[25]
  TGI: > 100 µM
[26]
  TGI: > 100 µM
[27]
  TGI: > 100 µM
[28]
  TGI: > 100 µM
[29]
  TGI: > 100 µM
[30]
  TGI: > 100 µM
[31]
  TGI: > 100 µM
[32]
  TGI: > 100 µM
[33]
  TGI: 48.1 µM
[34]
  TGI: > 100 µM
[35]
  TGI: > 100 µM
[36]
  TGI: > 100 µM
[37]
  TGI: > 100 µM
[38]
  TGI: > 100 µM
[39]
  TGI: > 100 µM
[40]
  TGI: 66.4 µM
[41]
  TGI: > 100 µM
[42]
  TGI: > 100 µM
[43]
  TGI: > 100 µM
[44]
  TGI: > 100 µM
[45]
  TGI: > 100 µM
[46]
  TGI: > 100 µM
[47]
  TGI: > 100 µM
[48]
  TGI: > 100 µM
[49]
  TGI: > 100 µM
[50]
  TGI: 72.1 µM
[51]
  TGI: > 100 µM

## O=c1[nH]c2ccc(C(F)(F)F)cc2nc1C(F)(F)F
[1]
  TGI: > 100 µM
[52]
  TGI: 39.8 µM
[2]
  TGI: > 100 µM
[3]
  TGI: > 100 µM
[4]
  TGI: 77 µM
[5]
  TGI: 42.7 µM
[6]
  TGI: 70.7 µM
[53]
  TGI: 89.8 µM
[7]
  TGI: 64.4 µM
[8]
  TGI: 96.5 µM
[9]
  TGI: 60.8 µM
[10]
  TGI: 60.7 µM
[11]
  TGI: > 100 µM
[13]
  TGI: 87.5 µM
[14]
  TGI: > 100 µM
[15]
  TGI: 45.9 µM
[16]
  TGI: 95.3 µM
[17]
  TGI: > 100 µM
[19]
  TGI: 57.7 µM
[20]
  TGI: 80.3 µM
[21]
  TGI: 35.5 µM
[22]
  TGI: 55.5 µM
[23]
  TGI: 75.6 µM
[24]
  TGI: > 100 µM
[25]
  TGI: > 100 µM
[27]
  TGI: > 100 µM
[28]
  TGI: > 100 µM
[29]
  TGI: 41.8 µM
[30]
  TGI: 78.8 µM
[31]
  TGI: > 100 µM
[32]
  TGI: > 100 µM
[33]
  TGI: 43.1 µM
[34]
  TGI: 36.3 µM
[35]
  TGI: > 100 µM
[54]
  TGI: 87.6 µM
[36]
  TGI: 85.7 µM
[55]
  TGI: > 100 µM
[37]
  TGI: 89 µM
[38]
  TGI: 64.2 µM
[39]
  TGI: 63.8 µM
[40]
  TGI: > 100 µM
[56]
  TGI: 48 µM
[41]
  TGI: > 100 µM
[57]
  TGI: 74.2 µM
[58]
  TGI: > 100 µM
[42]
  TGI: 46.9 µM
[43]
  TGI: > 100 µM
[44]
  TGI: 62.7 µM
[45]
  TGI: 30.2 µM
[46]
  TGI: 47.6 µM
[47]
  TGI: > 100 µM
[48]
  TGI: 82.1 µM
[49]
  TGI: > 100 µM
[50]
  TGI: > 100 µM
[59]
  TGI: > 100 µM
[51]
  TGI: > 100 µM
